The results in this text go back to patent US8163732B2, “Tricyclic heteroaryl compounds useful as inhibitors of Janus kinase” (Vertex Pharmaceuticals Incorporated, priority 2005, dated 2012).

One assay has as its target JAK-2 (Homo sapiens, UniProt O60674). Put plainly: JAK-2 inhibition assay. The assay is classed as biochemical.
For the next assay, the target named is T1, JAK-3 (Homo sapiens, UniProt P52333).
T1 sequence (P52333 1-1124): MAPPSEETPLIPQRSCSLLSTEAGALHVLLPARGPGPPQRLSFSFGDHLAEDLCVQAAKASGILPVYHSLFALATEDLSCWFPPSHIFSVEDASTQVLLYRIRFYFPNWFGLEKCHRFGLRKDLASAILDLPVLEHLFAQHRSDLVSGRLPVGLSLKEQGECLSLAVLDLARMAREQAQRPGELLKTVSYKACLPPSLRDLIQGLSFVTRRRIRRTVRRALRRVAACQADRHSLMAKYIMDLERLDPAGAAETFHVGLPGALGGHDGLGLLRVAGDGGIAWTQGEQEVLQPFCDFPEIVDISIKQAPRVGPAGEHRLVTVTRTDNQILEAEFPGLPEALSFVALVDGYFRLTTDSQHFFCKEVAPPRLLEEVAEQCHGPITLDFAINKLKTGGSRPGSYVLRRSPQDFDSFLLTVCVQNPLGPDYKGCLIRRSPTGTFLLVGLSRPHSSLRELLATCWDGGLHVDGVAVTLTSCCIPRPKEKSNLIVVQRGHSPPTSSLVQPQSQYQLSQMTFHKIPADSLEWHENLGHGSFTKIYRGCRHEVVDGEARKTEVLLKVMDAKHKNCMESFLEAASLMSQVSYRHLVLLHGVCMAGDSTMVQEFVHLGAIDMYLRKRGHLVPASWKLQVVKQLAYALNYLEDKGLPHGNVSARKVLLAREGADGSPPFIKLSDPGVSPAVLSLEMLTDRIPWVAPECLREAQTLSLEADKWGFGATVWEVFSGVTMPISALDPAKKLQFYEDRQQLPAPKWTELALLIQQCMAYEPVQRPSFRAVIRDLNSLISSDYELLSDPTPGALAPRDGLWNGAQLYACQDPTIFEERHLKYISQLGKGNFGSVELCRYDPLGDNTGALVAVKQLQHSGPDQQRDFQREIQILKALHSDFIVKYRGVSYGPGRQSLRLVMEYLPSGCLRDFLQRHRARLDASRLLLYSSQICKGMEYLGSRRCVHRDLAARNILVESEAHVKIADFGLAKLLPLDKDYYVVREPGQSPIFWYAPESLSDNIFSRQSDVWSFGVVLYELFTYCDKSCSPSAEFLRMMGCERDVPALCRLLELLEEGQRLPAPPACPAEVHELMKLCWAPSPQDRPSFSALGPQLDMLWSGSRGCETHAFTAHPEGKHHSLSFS
Put plainly: JAK-3 inhibition assay. The format is biochemical. Here is the method:
Compounds were screened for their ability to inhibit JAK using the assay shown below. Reactions were carried out in a kinase buffer containing 100 mM HEPES (pH 7.4), 1 mM DTT, 10 mM MgCl2, 25 mM NaCl, and 0.01% BSA.
Substrate concentrations in the assay were 5 μM ATP (200 μCi/μmole ATP) and 1 μM poly(Glu)4Tyr. Reactions were carried out at 25° C. and 1 nM JAK-3.
To each well of a 96 well polycarbonate plate was added 1.5 μL of a candidate JAK-3 inhibitor along with 50 μL of kinase buffer containing 2 μM poly(Glu)4Tyr and 10 μM ATP. This was then mixed and 50 μL of kinase buffer containing 2 nM JAK-3 enzyme was added to start the reaction. After 20 minutes at room temperature (25° C.), the reaction was stopped with 50 μL of 20% trichloroacetic acid (TCA) that also contained 0.4 mM ATP. The entire contents of each well were then transferred to a 96 well glass fiber filter plate using a TomTek Cell Harvester. After washing, 60 μL of scintillation fluid was added and ^33P incorporation detected on a Perkin Elmer TopCount. After removing the mean background values for all of the data points, the data were fit using Prism software to obtain a Ki value (app).

The term Ki denotes the dissociation constant of the complex between target and ligand, obtained from inhibition or displacement. Higher therefore signals a looser hold on the target.

JAK-2, sequence (O60674 whole entry): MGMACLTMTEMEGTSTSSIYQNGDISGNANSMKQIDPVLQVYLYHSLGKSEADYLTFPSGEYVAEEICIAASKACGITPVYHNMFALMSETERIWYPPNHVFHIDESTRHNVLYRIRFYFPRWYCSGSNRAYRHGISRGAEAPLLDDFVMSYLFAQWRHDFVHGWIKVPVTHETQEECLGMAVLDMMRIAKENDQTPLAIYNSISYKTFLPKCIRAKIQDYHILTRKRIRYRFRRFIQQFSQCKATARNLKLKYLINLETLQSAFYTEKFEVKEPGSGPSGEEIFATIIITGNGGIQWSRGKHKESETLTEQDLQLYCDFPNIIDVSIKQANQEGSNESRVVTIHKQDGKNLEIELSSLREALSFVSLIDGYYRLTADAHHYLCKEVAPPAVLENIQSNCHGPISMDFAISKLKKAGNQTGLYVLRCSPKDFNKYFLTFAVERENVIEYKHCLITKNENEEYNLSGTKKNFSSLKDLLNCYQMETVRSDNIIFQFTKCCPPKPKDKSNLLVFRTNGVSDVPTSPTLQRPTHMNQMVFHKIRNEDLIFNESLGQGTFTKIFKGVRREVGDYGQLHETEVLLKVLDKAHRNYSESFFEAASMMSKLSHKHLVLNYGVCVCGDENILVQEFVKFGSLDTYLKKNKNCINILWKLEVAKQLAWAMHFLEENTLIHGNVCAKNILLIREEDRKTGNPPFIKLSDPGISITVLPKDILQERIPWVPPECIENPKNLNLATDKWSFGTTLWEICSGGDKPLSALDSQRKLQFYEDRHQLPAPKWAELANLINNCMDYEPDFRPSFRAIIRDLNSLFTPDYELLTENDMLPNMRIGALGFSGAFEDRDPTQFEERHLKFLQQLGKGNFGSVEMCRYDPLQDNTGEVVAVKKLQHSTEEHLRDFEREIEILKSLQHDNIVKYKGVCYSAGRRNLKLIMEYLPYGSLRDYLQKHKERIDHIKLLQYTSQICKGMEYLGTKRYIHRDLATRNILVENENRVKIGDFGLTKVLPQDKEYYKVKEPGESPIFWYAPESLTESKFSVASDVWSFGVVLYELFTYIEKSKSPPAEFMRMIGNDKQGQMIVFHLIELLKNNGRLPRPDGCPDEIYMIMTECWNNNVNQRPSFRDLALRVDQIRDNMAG

As for `O=C1NC(c2ccc(Br)cc2)c2c[nH]c3nccc(c23)-c2ccccc21` (stereo not shown) [Compound 152], the Ki on JAK-2 and at JAK-3 was more than 2.5 µM throughout.

`COc1ccccc1C1Nc2ccccc2-c2ccnc3[nH]cc1c23` (stereo not shown) [Compound 9]: the inhibition constant Ki at JAK-2 and at JAK-3 was 0.25 to 2.5 µM each time.

Consider `Fc1ccccc1C1Nc2ccccc2-c2ccnc3[nH]cc1c23` (stereo not shown) [Compound 7], for which the results for the Ki at JAK-2 and on JAK-3 were less than 0.25 µM and 0.25 to 2.5 µM, respectively.

For `O=C(O)c1cc(C2Nc3ccccc3-c3ccnc4[nH]cc2c34)ccc1O` (stereo not shown) [Compound 110], the inhibition constant Ki at JAK-2 and on JAK-3 was more than 2.5 µM in each case.

As for `COc1cc(C2Nc3ccccc3-c3ncnc4[nH]cc2c34)ccc1O` (stereo not shown) [Compound 84], the Ki is less than 0.25 µM at JAK-2 and not above 0.25 µM at JAK-3.

Regarding `Oc1ccc(C2Nc3ccccc3-c3c(Cl)cnc4[nH]cc2c34)c(Cl)c1` (stereo not shown) [Compound 53], the Ki is less than 0.25 µM at JAK-2 and not above 0.25 µM at JAK-3.

Take `c1ccc(Oc2ccc(C3Nc4ccccc4-c4ccnc5[nH]cc3c45)cc2)cc1` (stereo not shown) [Compound 147]: the Ki on JAK-2 and on JAK-3 was more than 2.5 µM in each case.

Consider `c1ccc2c(c1)NC(c1ccc3nsnc3c1)c1c[nH]c3nccc-2c13` (stereo not shown) [Compound 144], for which the results for the Ki on JAK-2 and at JAK-3 were 0.25 to 2.5 µM and more than 2.5 µM, respectively.

Take `COc1ccc(C2Nc3ccccc3-c3ccnc4[nH]cc2c34)c(Cl)c1O` (stereo not shown) [Compound 70]: the Ki at JAK-2 was less than 0.25 µM; on JAK-3 it was 0.25 to 2.5 µM.

Take `c1ccc2c(c1)NC(c1ccc(-n3cncn3)cc1)c1c[nH]c3nccc-2c13` (stereo not shown) [Compound 120]: the Ki on JAK-2 and at JAK-3 was more than 2.5 µM each time.

On JAK-3, `CCC1Nc2ccccc2-c2ccnc3[nH]cc1c23` (stereo not shown) [Compound 14] gave a Ki of 0.25 to 2.5 µM.

For the compound `Fc1cccc(F)c1C1Nc2ccccc2-c2c(Cl)cnc3[nH]cc1c23` (stereo not shown) [Compound 52], the Ki at JAK-2 and at JAK-3 was 0.25 to 2.5 µM each time.

For the compound `Oc1ccc(C2Nc3ncccc3-c3ccnc4[nH]cc2c34)c(Cl)c1` (stereo not shown) [Compound 57], the results for the Ki at JAK-2 and on JAK-3 were less than 0.25 µM and not above 0.25 µM, respectively.

As to `FC(F)(F)Oc1ccc(C2Nc3ccccc3-c3ccnc4[nH]cc2c34)cc1` (stereo not shown) [Compound 134], the Ki at JAK-2 and at JAK-3 was 0.25 to 2.5 µM in each case.

Turning to `COc1cc(C2Nc3ccccc3-c3ccnc4[nH]cc2c34)cc(Cl)c1O` (stereo not shown) [Compound 112], the values for the Ki on JAK-2 and at JAK-3 were less than 0.25 µM and not above 0.25 µM, respectively.

With `c1ccc2c(c1)N=C(c1ccncc1)c1c[nH]c3nccc-2c13` [Compound 44], the Ki at JAK-2 was less than 0.25 µM; on JAK-3, 0.25 to 2.5 µM.

`OCc1ccc(C2Nc3ccccc3-c3ccnc4[nH]cc2c34)cc1` (stereo not shown) [Compound 154]: the Ki on JAK-3 was not above 0.25 µM.

For the compound `OCCCC1Nc2ccccc2-c2ccnc3[nH]cc1c23` (stereo not shown) [Compound 60], the Ki on JAK-2 was 0.25 to 2.5 µM; on JAK-3 it was more than 2.5 µM.

Turning to `COc1cc(C2Nc3ccccc3-c3ccnc4[nH]cc2c34)c(Br)cc1O` (stereo not shown) [Compound 76], the Ki is less than 0.25 µM at JAK-2 and not above 0.25 µM at JAK-3.

On to `Nc1ccc(C2=Nc3ccccc3-c3ccnc4[nH]cc2c34)cc1` [Compound 94], for which the Ki on JAK-2 was less than 0.25 µM; on JAK-3 it was not above 0.25 µM.

For the compound `COC(=O)Nc1ccc(C2c3c[nH]c4nccc(c34)-c3ccccc3N2C(=O)OC)cc1` (stereo not shown) [Compound 100], the Ki on JAK-2 was more than 2.5 µM; at JAK-3 it was 0.25 to 2.5 µM.

On to `Fc1ccc(F)c(C2Nc3ccccc3-c3ccnc4[nH]cc2c34)c1` (stereo not shown) [Compound 27], for which the Ki at JAK-2 was less than 0.25 µM; at JAK-3, not above 0.25 µM.

As to `COC(=O)C1(c2ccc(N)cc2)Nc2ccccc2-c2ccnc3[nH]cc1c23` (stereo not shown) [Compound 102], the Ki at JAK-2 and at JAK-3 was more than 2.5 µM each time.

On to `Oc1ccc(C2Nc3ccccc3-c3ccnc4[nH]cc2c34)c(F)c1` (stereo not shown) [Compound 107], for which the Ki on JAK-3 was not above 0.25 µM.

In turn, `CS(=O)(=O)Nc1ccc(C2Nc3ccccc3-c3ccnc4[nH]cc2c34)cc1` (stereo not shown) [Compound 123] yielded a Ki at JAK-3 of more than 2.5 µM.

Consider `CN(C(=O)Oc1ccc(C2Nc3ccccc3-c3ccnc4[nH]cc2c34)cc1F)c1ccccc1` (stereo not shown) [Compound 162], for which the Ki on JAK-2 and on JAK-3 was 0.25 to 2.5 µM each time.

In the case of `O=[N+]([O-])c1ccccc1C1Nc2ccccc2-c2ccnc3[nH]cc1c23` (stereo not shown) [Compound 35], the Ki at JAK-2 and at JAK-3 was 0.25 to 2.5 µM throughout.

For the compound `Cc1cc(C2Nc3ccccc3-c3ccnc4[nH]cc2c34)ccc1O` (stereo not shown) [Compound 140], the inhibitory constant (Ki) at JAK-2 is less than 0.25 µM; on JAK-3 it was not above 0.25 µM.

On to `COC(=O)C1(c2ccc([N+](=O)[O-])cc2)Nc2ccccc2-c2ccnc3[nH]cc1c23` (stereo not shown) [Compound 98], for which, at JAK-3, the Ki was 0.25 to 2.5 µM.

On to `Fc1ccc(C2Nc3ccccc3-c3ccnc4[nH]cc2c34)c(Cl)c1` (stereo not shown) [Compound 32], for which the figures for the Ki at JAK-2 and at JAK-3 were 0.25 to 2.5 µM and more than 2.5 µM, respectively.

For `c1ccc2c(c1)NC(C1CCNCC1)c1c[nH]c3nccc-2c13` (stereo not shown) [Compound 90], the Ki on JAK-2 and at JAK-3 was 0.25 to 2.5 µM each time.

Consider `COC(=O)Nc1ccc(C2c3cn(C(=O)OC)c4nccc(c34)-c3ccccc3N2C(=O)OC)cc1` (stereo not shown) [Compound 101], for which the Ki on JAK-2 and at JAK-3 was more than 2.5 µM each time.

For `OB(O)c1ccc(C2Nc3ccccc3-c3ccnc4[nH]cc2c34)cc1` (stereo not shown) [Compound 128], the inhibitory constant (Ki) is less than 0.25 µM on JAK-2 and not above 0.25 µM at JAK-3.

As for `c1ccc2c(c1)NC(c1ccc3c(c1)CCO3)c1c[nH]c3nccc-2c13` (stereo not shown) [Compound 141], the Ki on JAK-2 is less than 0.25 µM; at JAK-3, 0.25 to 2.5 µM.

For `CNC(=O)c1ccc(C2Nc3ccccc3-c3ccnc4[nH]cc2c34)cc1` (stereo not shown) [Compound 91], the Ki at JAK-3 was more than 2.5 µM.

Regarding `c1ccc(CC2Nc3ccccc3-c3ccnc4[nH]cc2c34)cc1` (stereo not shown) [Compound 24], the Ki on JAK-3 lay in the range of 0.25 to 2.5 µM.

`Oc1ccc(C2Nc3ccccc3-c3ncnc4[nH]cc2c34)c(F)c1` (stereo not shown) [Compound 118] displayed a Ki at JAK-3 not above 0.25 µM.

Turning to `CC(C)(C)C1Nc2ccccc2-c2ccnc3[nH]cc1c23` (stereo not shown) [Compound 6], at JAK-3, the Ki fell in the range of 0.25 to 2.5 µM.

For `CC(C)CC1Nc2ccccc2-c2ccnc3[nH]cc1c23` (stereo not shown) [Compound 15], the Ki at JAK-3 is more than 2.5 µM.

Consider `CC(C)C1Nc2ccccc2-c2ccnc3[nH]cc1c23` (stereo not shown) [Compound 16], for which the Ki on JAK-3 was more than 2.5 µM.

In turn, `O=C1Nc2ccccc2-c2ccnc3[nH]cc(c23)C1c1ccc(O)cc1` (stereo not shown) [Compound 125] gave a Ki at JAK-3 not above 0.25 µM.

Compound `COC(=O)CC1Nc2ccccc2-c2ccnc3[nH]cc1c23` (stereo not shown) [Compound 156] had a Ki at JAK-3 of 0.25 to 2.5 µM.

Turning to `Oc1ccc(C2Nc3ccccc3-c3ncnc4[nH]cc2c34)cc1F` (stereo not shown) [Compound 116], the Ki at JAK-3 is not above 0.25 µM.

In turn, `Oc1ccc(C2Nc3ccccc3-c3ccnc4[nH]cc2c34)cc1Br` (stereo not shown) [Compound 77] displayed an inhibitory constant (Ki) at JAK-3 not above 0.25 µM.

The compound `Oc1ccc(C2Nc3ccccc3-c3ccnc4[nH]cc2c34)cc1F` (stereo not shown) [Compound 105] returned an inhibition constant (Ki) on JAK-3 not above 0.25 µM.

The compound `c1ccc2c(c1)NC(C1CCCCC1)c1c[nH]c3nccc-2c13` (stereo not shown) [Compound 10] displayed a Ki at JAK-3 of more than 2.5 µM.

In the case of `Oc1ccc(C2Nc3ccccc3-c3ccnc4[nH]cc2c34)cc1` (stereo not shown) [Compound 65], the Ki at JAK-3 is not above 0.25 µM.

In turn, `c1ccc(COCC2Nc3ccccc3-c3ccnc4[nH]cc2c34)cc1` (stereo not shown) [Compound 1] yielded a Ki on JAK-3 of 0.25 to 2.5 µM.

For `c1ccc(C2Nc3ccccc3-c3ccnc4[nH]cc2c34)cc1` (stereo not shown) [Compound 5], at JAK-3, the inhibition constant Ki was 0.25 to 2.5 µM.

On JAK-3, `Fc1ccc(C2Nc3ccccc3-c3ccnc4[nH]cc2c34)c(F)c1F` (stereo not shown) [Compound 29] returned a Ki of 0.25 to 2.5 µM.

The compound `COC(=O)C1(c2ccc(O)cc2)Nc2ccccc2-c2ccnc3[nH]cc1c23` (stereo not shown) [Compound 103] registered a Ki on JAK-3 not above 0.25 µM.

Regarding `OCCCCC1Nc2ccccc2-c2ccnc3[nH]cc1c23` (stereo not shown) [Compound 59], at JAK-3, the Ki was more than 2.5 µM.

The compound `O=C(O)c1ccc(C2Nc3ccccc3-c3ccnc4[nH]cc2c34)cc1` (stereo not shown) [Compound 88] gave a Ki on JAK-3 of more than 2.5 µM.
